In patent US7786155B2, “Organic compounds” (Novartis AG, priority 2007, dated 2010):

Columns and labels:
rats = details: icv administration (Thorsell et al. Neurosci. Lett. 2002); cited from earlier work
[1] = biological target: T1, recombinant human NPY Y2 receptors (Homo sapiens, UniProt P49146); assay: Scintillation proximity [35S]GTPγS binding assay (inhibition of 0.5 nM NPY-stimulated [35S]GTPγS binding); format: biochemical; details: 10 μM compound, membranes from CHO-C4 cells expressing recombinant human NPY Y2 receptors; for inhibition at 10 µM: read-out: [%] inhibiton at 10 μM
T1 construct: expressed in transfected cells; host or cells: CHO-C4 cells (membrane preparation)
T1 sequence (P49146 1-381): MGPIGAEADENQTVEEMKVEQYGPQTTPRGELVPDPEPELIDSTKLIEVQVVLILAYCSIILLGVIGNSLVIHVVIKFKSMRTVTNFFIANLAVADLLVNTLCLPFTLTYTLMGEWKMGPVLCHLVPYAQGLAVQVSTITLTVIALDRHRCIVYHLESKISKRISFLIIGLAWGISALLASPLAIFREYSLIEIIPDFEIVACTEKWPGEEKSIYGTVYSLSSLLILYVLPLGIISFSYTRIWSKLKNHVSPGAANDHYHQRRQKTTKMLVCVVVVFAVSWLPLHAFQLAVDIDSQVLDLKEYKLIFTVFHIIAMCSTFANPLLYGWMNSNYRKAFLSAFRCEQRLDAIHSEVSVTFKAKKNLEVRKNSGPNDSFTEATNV
Description: Preparation of Membranes: CHO-C4 cells expressing recombinant human NPY Y2 receptors were used to prepare membranes for the GTPγS assay. Cells were grown to 80-95% confluency on 15-cm (225 cm^2) tissue culture plates. After aspiration of the culture medium, cells were washed twice with 18 ml ice-cold phosphate-buffered saline (PBS), scraped off and suspended in 3 ml ice-cold PBS in pre-cooled centrifuge tubes. The dishes were rinsed with 2 ml ice-old PBS per dish and the washings were combined with the PBS cell suspension from above. Cells pooled from 5-7 dishes were centrifuged for 5 min at 10,000 rpm (12,000 g) in a Sorvall RC5B centrifuge using an SS34 rotor at […]. The cell pellet was resuspended in 5 ml ice-cold buffer (20 mM HEPES, 10 mM EDTA; pH 7.4) by vortexing (2-5 sec), homogenized using a Polytron (step 4 for 20-30 sec), and ice-cold buffer added to 25 ml. The suspension was centrifuged again for 20 min at 18,000 rpm (39,000 g) at 4° C. and the pellet resuspended in 5 ml ice-cold buffer (20 mM HEPES, 0.1 mM EDTA; pH 7.4) by vortexing (2-5 sec), homogenized with a Polytron (step 4 for 10 sec), and ice-cold buffer added to 25 ml. The suspension was centrifuged a third time for 20 min at 18,000 rpm (39,000 g) at 4° C. The pellet was resuspend in 1 ml ice-cold buffer (20 mM Hepes, 0.1 mM EDTA; pH 7.4) by vortexing (5-8 sec). Two to five resuspended pellets were combined and homogenized using a Polytron (step 4 for 15-25 sec). A small aliquot (20-50 μl) was removed for protein determination by the Coomassie Plus Protein Assay Reagent (Pierce) using BSA as standard. The membrane suspension was aliquoted in precooled (on dry ice) Eppendorf tubes (0.25-1 ml/tube affording approximately 0.5-2 mg of membrane protein/tube). The pellets were frozen and stored at −80° C.
Scintillation proximity [^35S]GTPγS binding assay: Frozen membranes from CHO-C4 cells expressing recombinant human NPY Y2 receptors (2 mg for four 96-well plates) were thawed on ice. Thawed membranes were pipetted into 10 ml of assay buffer (20 mM HEPES, 10 mM MgCl2, 100 mM NaCl, pH 7.4) and homogenized briefly using a Polytron. The final assay mixture was prepared in 96-well microtiter plates (Isoplate Wallac, Perkin Elmer). The composition of the assay mixtures in a final volume of 250 μl per well was as follows: 20 mM HEPES, 10 mM MgCl2, 100 mM NaCl, pH 7.4, 30 μM GDP, 1 mg/ml BSA (added fresh), 5 μg membrane protein, 1.5 mg Wheatgerm agglutinin SPA beads (Amersham), 0.45 nM [^35S]GTPγS (Amersham, SJ1308, 1000 Ci/mmol, stabilized solution), and the test compounds (agonists and/or antagonists) at the appropriate concentrations. The samples were incubated at room temperature for 90 min by shaking, after which the SPA beads were sedimented by centrifugation in an Eppendorf 5804 centrifuge at 2700 rpm for 10 min at room temperature. After 60 min the plates were counted in a TopCount (Canberra). Basal [^35S]GTPγS binding was measured in the absence of agonist (NPY). Non-specific binding was measured in the presence of excess (10 μM) unlabelled GTPγS (Sigma). Nonspecific binding never exceeded 10% of basal binding and was thus not subtracted from the experimental data. Antagonists were tested for the inhibition of 0.5 nM NPY-stimulated [^35S]GTPγS binding. Antagonist inhibition curves were analyzed by non-linear regression using GraphPad Prism software (Version 4.0, GraphPad Software Inc., CA, USA).
Antagonistic activity of compounds of the present invention was examined by the Scintillation proximity [^35S]GTPγS binding assay as described above (inhibition of 0.5 nM NPY-stimulated [^35S]GTPγS binding). The table below represents percentages of inhibition at a concentration of 10 μM.

| SMILES | inhibition at 10 µM [1] | other results |
| --- | --- | --- |
| N=C(N)NCCC[C@H](NC(=O)CC1(CC(=O)N2CCN(C3c4ccccc4NC(=O)c4ccccc43)CC2)CCCC1)C(=O)NCCn1c(=O)n(-c2ccccc2)n(-c2ccccc2)c1=O (stereo partly shown) [BIIE0246] |  | ethanol self-administration (rats): dose dependently reduced ethanol self-administration |
| COc1ccccc1CC(=O)Nc1ccc(C(=O)CN2C(=O)C(c3ccccc3)(c3ccccc3)N=C2C)cc1 [Compound 30, 2-(2-Methoxy-phenyl)-N-{4-[2-(2-methyl-5-oxo-4,4-phenyl-4,5-dihydro-imidazol-1yl)-acetyl]-phenyl}-acetamide] |  | [%] inhibiton at 10 μM [1]: 78% |
| CCC(CC)C(=O)Nc1ccc(C(=O)CN2C(=O)C(c3ccccc3)(c3ccccc3)N=C2C)c(F)c1 [Compound 33, 2-Ethyl-N-{3-fluoro-4-[2-(2-methyl-5-oxo-4,4-diphenyl-4,5-dihydro-imidazol-1-yl)-acetyl]-phenyl}-butyramide] | 60% |  |
| CCC(CC)C(=O)Nc1ccc(C(=O)CN2C(=O)C(c3ccccc3)(c3ccccc3)N=C2C)cc1 [Compound 34, 2-Ethyl-N-{4-[2-(2-methyl-5-oxo-4,4-diphenyl-4,5-dihydro-imidazol-1-yl)-acetyl]-phenyl}-butyramide] | 65% |  |
